Like-named read-outs stand apart in the source and are kept apart here.
Tests used:
[1] = tested on: HLMEC human lung microvascular endothelial cell line; assay: SRB antiproliferative assay, HLMEC (normal); type: cell-based; conditions: 72 h, mean ± SD
[2] = tested on: MDA-MB-231 human breast cancer cell line; assay: SRB antiproliferative assay, MDA-MB-231; type: cell-based; conditions: for IC50: SRB, 72 h, mean ± SD; for Selectivity index SIA, MDA-MB-231: IC50 HLMEC / IC50 MDA-MB-231; for Selectivity index SIB, MDA-MB-231: IC50 MCF-10A / IC50 MDA-MB-231
Protocol: (§1) We determined the effect of various structural factors in the substrates on the antiproliferative activity against those selected to the study cell lines: the location and/or the presence of the prenyl group, the chalcone/flavanone skeleton and the presence of an O-methyl group at C-5 in flavanones. Flavonoids presented in Figure 1 were tested for the antiproliferative activity towards eight cancer cell lines including estrogen-dependent (MCF7 and T-47D) and two normal ones (HLMEC and MCF 10A). The in vitro antiproliferative activity was measured using SRB assay. The results are presented in Figure 2 (and in the supplement in Table S1). The antiproliferative activity was measured separately for each of the experiments and given as the average IC50 (the concentration of tested compound which inhibits 50% of the cells population). Cisplatin (CP), a common anticancer drug, was used as a positive control.
(§2) The following established in vitro cell lines were applied: MCF7, T-47D, MDA-MB-231 (human breast cancer cell line), A2780 (human ovarian cancer cell line), A2780cis (human cisplatin-resistant ovarian cancer cell line), PC-3 and DU 145 (human prostate cancer cell lines), HT-29 (human colon cancer cell line), HLMEC (human lung microvascular endothelial cell line), and MCF 10A (human mammary epithelial cells line).
(§3) The cell lines: MDA-MB-231, HT-29, PC-3, DU 145, and MCF 10A were obtained from the American Type Culture Collection (Rockville, MD, USA), MCF7, T-47D, A2780, A2780cis from the European Collection Cell Cultures (Sigma-Aldrich, Chemie GmbH, Steinheim, Germany), while the HLMEC cell line was obtained by M. Paprocka from the institute. All cell lines are being maintained in the Institute of Immunology and Experimental Therapy (Wrocław, Poland). DU 145 and MCF7 cells were cultured in Eagle medium (supplemented with 4mM L-glutamine, 10% fetal bovine serum, 1 mM sodium pyruvate for DU 145 cells or 2 mM L-glutamine, 1% mem non-essential amino acid solution and 8 µg/mL insulin and 10% fetal bovine serum for MCF7). […] HT-29 and T-47D cell lines were cultured in RPMI 1640 + OPTI-MEM medium supplemented with 2 mM L-glutamine, 5% fetal bovine serum and 8 µg/mL of insulin (T-47D) or 1 mM sodium pyruvate (HT-29). MDA-MB-231, PC-3 and HLMEC cell lines were cultured in RPMI 1640 medium supplemented with 2 mM L-glutamine and 10% fetal bovine serum. Medium for MCF 10A cell line consisted of F-12 nutrient mixture supplemented with cholera toxin (0.05 µg/mL), insulin (10 µg/mL), hydrocortisone (0.5 µg/mL), 5% horse serum, and EGFH (20 ng/mL). All the culture media contained antibiotics: 100 units/mL penicillin (Polfa Tarchomin SA, Warsaw, Poland), and 100 µg/mL streptomycin (Sigma-Aldrich, Chemie GmbH, Steinheim, Germany). All cell lines were grown at 37 °C with 5% CO2 humidified atmosphere.
(§4) Twenty-four hours before the incubation with the tested compounds, the cells were seeded in 96-plates (Sarstedt, Germany) at a density of 1 × 10^4 cells per well (0.75 × 10^4 per well for MCF7 and 1 × 10^3 per well for HLMEC) in 100 µL of a culture medium.
(§5) Each agent at each concentration (from 0.1 to 100 µg/mL) was tested in a single experiment, which was repeated four to five times. […] Cisplatin was used as a reference drug.
(§6) The results were calculated as the IC50 (inhibitory concentration 50%)—the concentration of the tested compound which inhibits 50% of the cells population. IC50 values were calculated for each experiment separately and mean values ± SD are presented in the Table S1 in the Supplementary Materials. Each compound at each concentration was tested in triplicate in a single experiment, which was repeated four to five times.
(§7) The cells were fixed in situ by gently adding cold 50% trichloroacetic acid (50 µL per well). The plates were incubated at 4 °C for 1h and then washed five times with tap water. […]

[3] = tested on: DU 145 human prostate cancer cell line; assay: SRB antiproliferative assay, DU 145; type: cell-based; conditions: for IC50: SRB, 72 h, mean ± SD; for Selectivity index SIA, Du-145: IC50 HLMEC / IC50 Du-145; for Selectivity index SIB, Du-145: IC50 MCF-10A / IC50 Du-145
Protocol: as §1, §2, §3, §4, §5, §6, §7

[4] = tested on: PC-3 human prostate cancer cell line; assay: SRB antiproliferative assay, PC-3; type: cell-based; conditions: for IC50: SRB, 72 h, mean ± SD; for Selectivity index SIA, PC-3: IC50 HLMEC / IC50 PC-3; for Selectivity index SIB, PC-3: IC50 MCF-10A / IC50 PC-3
Protocol: as §1, §2, §3, §4, §5, §6, §7

[5] = tested on: A2780cis human cisplatin-resistant ovarian cancer cell line; assay: SRB antiproliferative assay, A2780cis; type: cell-based; conditions: for IC50: SRB, 72 h, mean ± SD, read-out: Cancer cell line, IC50, A-2780cis; for Selectivity index SIA, A-2780cis: IC50 HLMEC / IC50 A-2780cis; for Selectivity index SIB, A-2780cis: IC50 MCF-10A / IC50 A-2780cis
Protocol: as §1, §2, §3, §4, §5, §6, §7

[6] = tested on: HT-29 human colon cancer cell line; assay: SRB antiproliferative assay, HT-29; type: cell-based; conditions: for IC50: SRB, 72 h, mean ± SD; for Selectivity index SIA, HT-29: IC50 HLMEC / IC50 HT-29; for Selectivity index SIB, HT-29: IC50 MCF-10A / IC50 HT-29
[7] = tested on: A2780 human ovarian cancer cell line; assay: SRB antiproliferative assay, A2780; type: cell-based; conditions: for IC50: SRB, 72 h, mean ± SD, read-out: Cancer cell line, IC50, A-2780; for Selectivity index SIA, A-2780: IC50 HLMEC / IC50 A-2780; for Selectivity index SIB, A-2780: IC50 MCF-10A / IC50 A-2780
Protocol: as §1, §2, §3, §4, §5, §6, §7

[8] = tested on: T-47D human breast cancer cell line; assay: SRB antiproliferative assay, T-47D; type: cell-based; conditions: for IC50: SRB, 72 h, mean ± SD; for Selectivity index SIA, T-47D: IC50 HLMEC / IC50 T-47D; for Selectivity index SIB, T-47D: IC50 MCF-10A / IC50 T-47D
Protocol: as §1, §2, §3, §4, §5, §6, §7

[9] = tested on: MCF 10A human mammary epithelial cells line; assay: SRB antiproliferative assay, MCF 10A (normal); type: cell-based; conditions: 72 h, mean ± SD, read-out: Normal cell line, IC50, MCF-10A
Protocol: as §1, §2, §3, §4, §5, §6, §7

[10] = tested on: MCF7 human breast cancer cell line; assay: SRB antiproliferative assay, MCF7; type: cell-based; conditions: for IC50: SRB, 72 h, mean ± SD; for Selectivity index SIA, MCF-7: IC50 HLMEC / IC50 MCF-7; for Selectivity index SIB, MCF-7: IC50 MCF-10A / IC50 MCF-7
Protocol: as §1, §2, §3, §4, §5, §6, §7

[11] = cited from earlier work

Row | Compound | Selectivity index SIA, MDA-MB-231 [2] | Selectivity index SIB, MDA-MB-231 [2] | Selectivity index SIA, Du-145 [3] | Selectivity index SIB, Du-145 [3] | Selectivity index SIA, PC-3 [4] | Selectivity index SIB, PC-3 [4] | Selectivity index SIA, A-2780cis [5] | Selectivity index SIB, A-2780cis [5] | Selectivity index SIA, HT-29 [6] | Selectivity index SIB, HT-29 [6] | Selectivity index SIA, A-2780 [7] | Selectivity index SIB, A-2780 [7] | Selectivity index SIA, T-47D [8] | Selectivity index SIB, T-47D [8] | Selectivity index SIA, MCF-7 [10] | Selectivity index SIB, MCF-7 [10] | IC50 ([1]; Homo sapiens, Endothelial cell) | IC50 ([2]; Homo sapiens, MDA-MB-231) | IC50 ([3]; Homo sapiens, DU-145) | IC50 ([4]; Homo sapiens) | also measured
1 | N.N.[Cl][Pt][Cl] [Cisplatin (CP), Cisplatin, reference compound] |  |  |  |  |  |  |  |  |  |  |  |  |  |  |  |  |  |  |  |  | IC50 [1]: 0.93 ± 0.28 µM; IC50 [2]: 16.9 ± 5.45 µM; IC50 [3]: 2.73 ± 1.32 µM; IC50 [4]: 11.4 ± 2.23 µM; IC50 [5]: 12.1 ± 1.27 µM; IC50 [6]: 9.56 ± 3.75 µM; IC50 [7]: 0.97 ± 0.46 µM; IC50 [8]: 22.2 ± 7.32 µM; IC50 [9]: 13.6 ± 4.93 µM; IC50 [10]: 6.29 ± 1.05 µM
2 | 8-(3,3-dimethylallyl)-4,7-dihydroxy-5-methoxyflavanone [IXN] | 0.29 | 1.66 | 0.21 | 1.22 | 0.23 | 1.35 | 1.07 | 6.19 | 0.41 | 2.36 | 1.58 | 9.09 | 0.47 | 2.70 | 0.75 | 4.31 |  |  |  |  | IC50 [1]: 12.5 ± 5.65 µM; IC50 [2]: 43.3 ± 10.3 µM; Glucuronidation ([11]; in vivo): > 90%; IC50 [3]: 59.2 ± 5.73 µM; IC50 [4]: 53.2 ± 10.6 µM; IC50 [5]: 11.7 ± 1.44 µM; IC50 [6]: 30.6 ± 1 µM; IC50 [7]: 7.93 ± 1.65 µM; IC50 [8]: 26.8 ± 6.44 µM; IC50 [9]: 72.1 ± 21.7 µM; IC50 [10]: 16.7 ± 0.88 µM
3 | CC(C)=CCc1c(O)cc(O)c2c1OC(c1ccc(O)cc1)CC2=O (stereo not drawn) [8PN, 8-(3,3-dimethylallyl)-5,7,4′-trihydroxyflavanone] | 0.37 | 1.42 | 0.39 | 1.50 | 0.47 | 1.77 | 0.36 | 1.37 | 0.27 | 1.00 | 0.92 | 3.50 | 0.90 | 3.40 | 0.48 | 1.83 | 23.9 ± 10.9 µM | 63.8 ± 7.27 µM | 60.6 ± 6.66 µM | 51.4 ± 11.3 µM | Glucuronidation ([11]; breast tissue study of Bolca and co-workers): > 90%; IC50 ([5]; Homo sapiens, A2780cis): 66.4 ± 10.1 µM; IC50 ([6]; Homo sapiens, HT-29): 89.8 ± 3.42 µM; IC50 ([7]; Homo sapiens, A2780): 25.9 ± 8.32 µM; IC50 ([8]; Homo sapiens, T47D): 26.7 ± 9.7 µM; IC50 ([9]; Homo sapiens, MCF-10A): 90.7 ± 19.8 µM; IC50 ([10]; Homo sapiens, MCF7, 72 h): 49.5 ± 7.36 µM
4 | O=C1C[C@@H](c2ccc(O)cc2)Oc2cc(O)cc(O)c21 [NG, Naringenin, reference compound] | 0.71 | 1.13 | 0.88 | 1.40 | 0.68 | 1.09 | 1.07 | 1.71 | 0.90 | 1.43 | 1.17 | 1.87 | 1.12 | 1.79 | 0.90 | 1.43 | 117 ± 32.3 µM | 166 ± 82.4 µM | 134 ± 12.9 µM | 171 ± 28.8 µM | IC50 ([5]; Homo sapiens, A2780cis): 109 ± 17 µM; IC50 ([6]; Homo sapiens, HT-29): 131 ± 28.2 µM; IC50 ([7]; Homo sapiens, A2780): 100 ± 4.77 µM; IC50 ([8]; Homo sapiens, T47D): 105 ± 48.3 µM; IC50 ([9]; Homo sapiens, MCF-10A): 187 ± 72.4 µM; IC50 ([10]; Homo sapiens, MCF7, 72 h): 131 ± 6.11 µM; IC50 [10]: 187 ± 72.4 µM
5 | CC(C)=CCc1c(O)cc2c(c1O)C(=O)CC(c1ccc(O)cc1)O2 (stereo not drawn) [6PN, 6-(3,3-dimethylallyl)-5,7,4′-trihydroxyflavanone] | 0.22 | 1.76 | 0.17 | 1.38 | 0.18 | 1.46 | 0.17 | 1.35 | 0.21 | 1.70 | 0.31 | 2.49 | 0.86 | 6.87 | 0.32 | 2.54 | 13.7 ± 5.16 µM | 62.6 ± 19.5 µM | 79.6 ± 8.89 µM | 75.5 ± 29.8 µM | IC50 ([5]; Homo sapiens, A2780cis): 81.7 ± 17.7 µM; IC50 ([6]; Homo sapiens, HT-29): 64.6 ± 17.1 µM; IC50 ([7]; Homo sapiens, A2780): 44.2 ± 14.7 µM; IC50 ([8]; Homo sapiens, T47D): 16 ± 3.74 µM; IC50 ([9]; Homo sapiens, MCF-10A): 110 ± 33 µM; IC50 ([10]; Homo sapiens, MCF7, 72 h): 43.2 ± 4.37 µM
6 | COc1cc(O)c(CC=C(C)C)c(O)c1C(=O)CCc1ccc(O)cc1 [2HXN, 3′-(3,3-dimethylallyl)-4,2′,4′-trihydroxy-6′-methoxy-α,β-dihydrochalcone] | 1.41 | 7.19 | 1.09 | 5.56 | 0.87 | 4.43 | 1.22 | 6.22 | 1.16 | 5.89 | 7.87 | 40.03 | 1.95 | 9.91 | 1.41 | 7.15 | 14.2 ± 4.24 µM | 10 ± 3.26 µM | 13 ± 4.2 µM | 16.3 ± 5.22 µM | IC50 ([5]; Homo sapiens, A2780cis): 11.6 ± 3.36 µM; IC50 ([6]; Homo sapiens, HT-29): 12.2 ± 2.99 µM; IC50 ([7]; Homo sapiens, A2780): 1.8 ± 0.64 µM; SIA against A2780, times higher than the reference ([7]; ratio of SIA to SIA of cisplatin): 5-8 times; IC50 ([8]; Homo sapiens, T47D): 7.27 ± 3.05 µM; IC50 ([9]; Homo sapiens, MCF-10A): 72 ± 8.55 µM; IC50 ([10]; Homo sapiens, MCF7, 72 h): 10.1 ± 2.31 µM

Source: article PMC6278664, “Highly Cancer Selective Antiproliferative Activity of Natural Prenylated Flavonoids” (Molecules, 2018)
